SMILES strings stand for the structures.

One assay deals with T1, human ROCK1 (Homo sapiens, UniProt Q13464).
T1 construct: His tag (N); host or cells: insect cells (Sf9)
T1 sequence (Q13464 1-727): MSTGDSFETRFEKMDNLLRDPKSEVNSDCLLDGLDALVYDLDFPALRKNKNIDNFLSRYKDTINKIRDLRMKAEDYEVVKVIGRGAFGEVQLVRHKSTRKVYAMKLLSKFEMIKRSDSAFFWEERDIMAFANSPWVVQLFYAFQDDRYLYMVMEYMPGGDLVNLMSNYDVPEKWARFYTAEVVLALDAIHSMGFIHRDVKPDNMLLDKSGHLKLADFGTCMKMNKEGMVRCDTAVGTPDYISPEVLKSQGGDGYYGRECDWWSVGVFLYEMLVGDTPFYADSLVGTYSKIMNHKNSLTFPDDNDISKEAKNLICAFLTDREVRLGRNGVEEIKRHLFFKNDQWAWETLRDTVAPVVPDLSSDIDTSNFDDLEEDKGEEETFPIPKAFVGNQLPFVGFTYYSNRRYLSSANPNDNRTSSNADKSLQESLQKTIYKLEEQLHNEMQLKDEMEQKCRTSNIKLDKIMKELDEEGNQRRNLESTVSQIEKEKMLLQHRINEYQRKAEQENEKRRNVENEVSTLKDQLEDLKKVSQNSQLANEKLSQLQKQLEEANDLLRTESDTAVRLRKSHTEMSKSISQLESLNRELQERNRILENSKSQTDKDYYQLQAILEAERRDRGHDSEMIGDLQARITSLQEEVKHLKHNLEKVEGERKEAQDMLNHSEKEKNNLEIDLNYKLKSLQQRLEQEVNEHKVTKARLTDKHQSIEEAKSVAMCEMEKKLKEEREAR
The experiment in a line: Measurement of Rho kinase inhibitory activity (ELISA of MBS phosphorylation). It is filed as biochemical. Conditions: human ROCK1, MBS substrate, 100 μM ATP, 30° C. for 10 minutes. The procedure:
In this test, human ROCK1 was used as Rho kinase, MBS (myosin binding subunit, subunit constituting myosin phosphatase) was used as the substrate of Rho kinase, and an anti-phosphorylated MBS antibody was used for detection of phosphorylation. The activity for inhibiting Rho kinase was determined by measuring phosphorylation of MBS by the Rho kinase by ELISA in the presence of an appropriately diluted test compound. As the Rho kinase used, a recombinant protein (N-terminal His-tagged recombinant human ROCK1 residues (1Met-[…])) was used, which was produced in insect cells (Sf9) using a sequence (1-727), of which activity was confirmed in the paper of Ishizaki et al. (Ishizaki, T. et al., FEBS Letters, 404, pp 118-124, 1997), based on the sequence of human ROCK1 (p 160 ROCK) described in the report of Ishizaki et al. (Ishizaki, T. et al., EMBO J., 15, pp 1885-1893, 1996). Further, as the MBS protein and anti-phosphorylated MBS antibody, those prepared according to the method described in the paper of Ito et al. (Ito, K et al., J. Physiol., 546, pp 823-836, 2003) were used.
A solution of MBS (Asahi Kasei Pharma, lot No, 040814n7-10) diluted with PBS to an appropriate concentration was added to an ELISA plate (Maxisorp, Nunc), and left, stand overnight at 4° C., and then the wells were washed twice with a washing solution (WB, washing buffer, 0.1% Tween 20/PBS). To the wells were added 1% bovine serum albumin (Sigma)/PBS, and left for 1 to 3 hours, and then the wells were washed 5 times with WB to prepare a substrate-immobilized plate. Onto this plate, a reaction mixture (5 mM MgSO4/0.1 M NaCl/20 mM HEPES (pH 7.5)/100 μM ATP/5 mM DTT), a test compound, and appropriately diluted human ROCK1 (Asahi Kasei Pharma, lot No, 030126.120-22) were added, and then reacted at 30° C. for 10 minutes. Then, 0.2 M EDTA (pH 7.5) was added to terminate the reaction, and the wells were washed 5 times with WB. A rabbit anti-phosphorylated MBS antibody solution (Asahi Kasei Pharma, lot No, 122676431) diluted 10,000 times with WB containing 1% bovine serum albumin was added to the wells, and after the reaction for 1 hour, the wells were washed 5 times with WB. Goat anti-rabbit IgG-HRP (Zymed) diluted 1,000 times with WB containing 1% bovine serum albumin was added to the wells as the secondary detection antibody and the mixture was reacted for 1 hour, and then the wells were washed 5 times with WB. An OPD (o-phenylenediamine) solution (1 mg/ml OPD, Sigma), 5.1 g/l of citric acid monohydrate, and 18.4 g/l of Na2HPO4.12H2O were added to the wells to develop color, […] was added 5 minutes later to terminate the color development, and absorbance was measured at 490 nm.
The inhibition ratio was calculated as follows. Inhibition ratio(%)=[…]
Further, the inhibition ratio was calculated with changing the concentration of the test compound, and a compound concentration providing an inhibition ratio of 50% was obtained as IC50.
`N[C@H]1CCN(S(=O)(=O)c2cccc3cncc(Br)c23)C1` [Example 1-1, (S)-3-Amino-1-(4-bromo-5-isoquinolinesulfonyl)pyrrolidine] came in with an IC50 of less than 1000 nM. Molecule `N[C@@H]1CCN(S(=O)(=O)c2cccc3cncc(Br)c23)C1` [Example 1-2, (R)-3-Amino-1-(4-bromo-5-isoquinolinesulfonyl)pyrrolidine] had an IC50 of less than 1000 nM. As for `O=S(=O)(c1cccc2cncc(Br)c12)N1CC[C@H](NCc2ccccc2)C1` [Example 1-6], the IC50 was less than 1000 nM. Still for that read-out and setting: with `COc1ccc(CN[C@H]2CCN(S(=O)(=O)c3cccc4cncc(Br)c34)C2)cc1` [Example 1-7] the figure was less than 1000 nM; with `O=S(=O)(c1cccc2cncc(Br)c12)N1CC[C@H](NCc2ccc(O)cc2)C1` [Example 1-11], less than 1000 nM. In turn, `O=S(=O)(c1cccc2cncc(Br)c12)N1CC[C@H](NCCc2ccccc2)C1` [Example 1-13] yielded an IC50 of less than 1000 nM. In the case of `O=S(=O)(c1cccc2cncc(Br)c12)N1CC[C@H](NC2CCC(O)CC2)C1` (stereo partly drawn) [Example 1-33], the half-inhibitory concentration (IC50) was in the range of 1000 to 3000 nM. Turning to `O=S(=O)(c1cccc2cncc(Br)c12)N1CC[C@H](NCc2ccc3c(c2)OCCO3)C1` [Example 1-38], the IC50 is less than 1000 nM. Regarding `CCCN[C@H]1CCN(S(=O)(=O)c2cccc3cncc(C)c23)C1` [Example 8-5], the IC50 is less than 1000 nM. In turn, `Cc1cncc2cccc(S(=O)(=O)N3CC[C@H](NCc4ccccc4)C3)c12` [Example 8-6] yielded an IC50 of less than 1000 nM.

The molecule `COc1ccc(CN[C@H]2CCN(S(=O)(=O)c3cccc4cncc(C)c34)C2)cc1` [Example 8-7] had an IC50 of less than 1000 nM. The same measure, in the same setting: with `Cc1cncc2cccc(S(=O)(=O)N3CC[C@H](NCc4ccc5c(c4)OCO5)C3)c12` [Example 8-8] the figure was less than 1000 nM; with `Cc1cncc2cccc(S(=O)(=O)N3CC[C@H](NCc4ccc([N+](=O)[O-])cc4)C3)c12` [Example 8-9], 1000 to 3000 nM. The molecule `Cc1ccc(CN[C@H]2CCN(S(=O)(=O)c3cccc4cncc(C)c34)C2)o1` [Example 8-16] displayed an IC50 of 1000 to 3000 nM. For the molecule `Cc1ccc(CN[C@H]2CCN(S(=O)(=O)c3cccc4cncc(C)c34)C2)s1` [Example 8-18], the IC50 fell in the range of 1000 to 3000 nM. Molecule `Cc1cncc2cccc(S(=O)(=O)N3CC[C@H](NCC#N)C3)c12` [Example 8-73] gave an IC50 of 1000 to 3000 nM. The same measure, in the same setting: with `C#Cc1cncc2cccc(S(=O)(=O)N3CC[C@H](NCc4ccco4)C3)c12` [Example 10-14] the figure was 1000 to 3000 nM; with `C#Cc1cncc2cccc(S(=O)(=O)N3CC[C@H](NC4CCOCC4)C3)c12` [Example 10-31], 1000 to 3000 nM; with `O=S(=O)(c1cccc2cncc(F)c12)N1CC[C@H](NCc2ccc3c(c2)OCO3)C1` [Example 18-8], less than 1000 nM.

Molecule `Cc1ccc(CN[C@H]2CCN(S(=O)(=O)c3cccc4cncc(F)c34)C2)o1` [Example 18-16] displayed an IC50 of 1000 to 3000 nM. Take `CCN[C@H]1CCN(S(=O)(=O)c2cccc3cncc(Cl)c23)C1` [Example 19-4]: the IC50 lay in the range of 1000 to 3000 nM. Molecule `O=S(=O)(c1cccc2cncc(Cl)c12)N1CC[C@H](NCc2ccc3c(c2)OCO3)C1` [Example 19-8] displayed an IC50 of less than 1000 nM.

Turning to `O=S(=O)(c1cccc2cncc(Cl)c12)N1CC[C@H](NCc2ccco2)C1` [Example 19-14], the IC50 was in the range of 1000 to 3000 nM.

`O=S(=O)(c1cccc2cncc(Cl)c12)N1CC[C@H](NCc2cccs2)C1` [Example 19-17] returned an IC50 of 1000 to 3000 nM. As to `Cn1cccc1CN[C@H]1CCN(S(=O)(=O)c2cccc3cncc(Cl)c23)C1` [Example 19-21], the IC50 is 1000 to 3000 nM. The same measure, in the same setting: with `Nc1ncc(Br)c2c(S(=O)(=O)N3CC[C@H](N)C3)cccc12` [Example 41-1, (S)-3-Amino-1-(1-amino-4-bromo-5-isoquinolinesulfonyl)pyrrolidine] the figure was less than 1000 nM; with `NCC1CCN(S(=O)(=O)c2cccc3cncc(Cl)c23)C1` (stereo not drawn) [Example 44, 3-(Aminomethyl)-1-(4-chloro-5-isoquinolinesulfonyl)pyrrolidine], less than 1000 nM; with `N[C@H]1CCN(S(=O)(=O)c2cccc3cncc(C(F)(F)F)c23)C1` [Example 47-1, (S)-3-Amino-1-(4-trifluoromethyl-5-isoquinolinesulfonyl)pyrrolidine], 1000 to 3000 nM. The same measure, in the same setting: the result for `CS(=O)(=O)N[C@H]1CCN(S(=O)(=O)c2cccc3cncc(Cl)c23)C1` [Example 50-1, (S)-3-(Methanesulfonylamino)-1-(4-chloro-5-isoquinolinesulfonyl)pyrrolidine] reads 1000 to 3000 nM; that for `NCC1CCN(S(=O)(=O)c2cccc3cncc(Cl)c23)CC1` [Example 52, 4-(Aminomethyl)-1-(4-chloro-5-isoquinolinesulfonyl)piperidine], less than 1000 nM.

For a further assay, the system named is rabbit normal intraocular pressure. Kind of assay: Intraocular pressure reducing action. It is filed as in vivo, Japanese white rabbit. Conditions: Oryctolagus cuniculus, topical; 3 mM aqueous solution, 50 μl to the left eye; max IOP reduction (2, 4, 6 hours) / value immediately before administration; read-out: intraocular pressure reducing degree. The procedure: A Japanese white rabbit having a body weight of about 2 kg was placed in a positioner and naturalized for one week before the experiment. An opthalmologic local anesthesant (Benoxil) was administered to both eyes, and then intraocular pressure was measured by using a tonometer (Classic 30, Solan). A 3 mM aqueous solution of a test compound was administered in a volume of 50 μl to the left eye, and the right eye was not treated (control eye). The intraocular pressure values were measured for the left and right eyes immediately before, and 2, 4 and 6 hours after the administration of the aqueous solution of the test compound, and the difference of the measured values for the left and right eyes was considered an intraocular pressure reduction value of the test medicament at each measurement time. The largest difference of the values for the left and right eyes among the measured values at the measurement times (after 2, 4 and 6 hours) was considered the maximum intraocular pressure reduction value (max ? IOP) of each test medicament. The intraocular pressure reducing degree representing the intraocular pressure reducing action of each test medicament was calculated according to the following formula. Since rabbits show significant daily variation of intraocular pressure, daily variation is added when change of intraocular pressure is measured over time, and the intraocular pressure reducing action may be overestimated. Therefore, we used this calculation method of intraocular pressure reduction value in order to minimize the influence of the variation. Intraocular pressure reducing degree(%)=(max ? IOP/Intraocular pressure value immediately before administration)×100
As for `N[C@H]1CCN(S(=O)(=O)c2cccc3cncc(Br)c23)C1` [Example 1-1, (S)-3-Amino-1-(4-bromo-5-isoquinolinesulfonyl)pyrrolidine], the inhibition in vivo at 3000 µM was no less than 20%. Consider `N[C@@H]1CCN(S(=O)(=O)c2cccc3cncc(Br)c23)C1` [Example 1-2, (R)-3-Amino-1-(4-bromo-5-isoquinolinesulfonyl)pyrrolidine], for which the inhibition in vivo at 3000 µM was no less than 20%.

For the molecule `O=C(COc1ccc2nncn2n1)N[C@H]1CCN(S(=O)(=O)c2cccc3cncc(Cl)c23)C1` [Example 107, (S)-3-[2-([1,2,4]Triazolo[4,3-b]pyridazin-6-yloxy)acetyl]amino-1-(4-chloro-5-isoquinolinesulfonyl)pyrrolidine], the inhibition in vivo at 3000 µM lay within 10 to 20%. Take `COCC(COC)OCC(=O)N[C@H]1CCN(S(=O)(=O)c2cccc3cncc(Cl)c23)C1` [Example 108, (S)-3-[2-(1,3-Dimethoxypropan-2-yloxy)acetyl]amino-1-(4-chloro-5-isoquinolinesulfonyl)pyrrolidine]: the inhibition in vivo at 3000 µM is no less than 20%. As to `CN(C)CCOCC(=O)N[C@H]1CCN(S(=O)(=O)c2cccc3cncc(Cl)c23)C1` [Example 111, (S)-3-[2-[2-(Dimethylamino)ethoxy]acetyl]amino-1-(4-chloro-5-isoquinolinesulfonyl)pyrrolidine], the inhibition in vivo at 3000 µM is 5 to 10%. As for `COCC(=O)N[C@H]1CCN(S(=O)(=O)c2cccc3cncc(F)c23)C1` [Example 115, (S)-3-(2-Methoxyacetyl)amino-1-(4-fluoro-5-isoquinolinesulfonyl)pyrrolidine], the inhibition in vivo at 3000 µM was 5 to 10%.

Regarding `COCC(=O)N(C)[C@H]1CCN(S(=O)(=O)c2cccc3cncc(F)c23)C1` [Example 116, (S)-3-[N-(2-Methoxyacetyl)-N-methyl]amino-1-(4-fluoro-5-isoquinolinesulfonyl)pyrrolidine], the inhibition in vivo at 3000 µM lay within 10 to 20%. On to `CN(C)CC(=O)N[C@H]1CCN(S(=O)(=O)c2cccc3cncc(F)c23)C1` [Example 117, (S)-3-[(2-Dimethylamino)acetyl]amino-1-(4-fluoro-5-isoquinolinesulfonyl)pyrrolidine], for which the inhibition in vivo at 3000 µM lay in the range of 5 to 10%.

Consider `CN(C)CC(=O)N(C)[C@H]1CCN(S(=O)(=O)c2cccc3cncc(F)c23)C1` [Example 118, (S)-3-[N-(2-Dimethylamino)acetyl-N-methyl]amino-1-(4-fluoro-5-isoquinolinesulfonyl)pyrrolidine], for which the inhibition in vivo at 3000 µM was 5 to 10%.

The values are drawn from patent publication US7964613B2 (Asahi Kasei Pharma Corporation, priority 2007, dated 2011).
